Results taken from PMC8126888 (RSC Medicinal Chemistry, 2020).
Where two headings read alike, the source gives them in different places.

What was measured:
in vitro [1] = conditions: human
[2] = system: Trypanosoma cruzi, Tulahuen CL2, beta-galactosidase strain; assay: microbe, parasite or virus in culture
in vitro [3] = conditions: human, HepG2 cells
in vitro [4] = conditions: human, HFF-1 cells
[5] = system: primary peritoneal mouse macrophages (PMM); assay: cells; conditions: Macrophage
[6] = system: Leishmania infantum MHOM/MA(BE)/67/ITMAP263 intracellular amastigotes; assay: microbe, parasite or virus in culture; conditions: Macrophage, in Mus musculus
in vitro [7] = conditions: human, microsomes
[8] = system: Leishmania infantum MHOM/MA(BE)/67/ITMAP263 intracellular amastigotes; conditions: intracellular amastigotes in PMM
in vitro [9] = conditions: mouse, microsomes
[10] = MRC5, read-out: T. cruzi Tulahuen C4 (LacZ) IC50 (uM)
[11] = read-out: L. Inf. pIC50, from L. infantum intracellular amastigote IC50 (converted)
[12] = read-out: L. infantum MHOM/MA(BE)/67/ITMAP263 intracellular amastigotes IC50 (uM), intracellular amastigotes
[13] = pH 7.4, Microsome Clint,u Human, Table 2, intrinsic in vitro clearance, liver microsomes
[14] = read-out: PMM pIC50 (converted)
[15] = read-out: L. inf. pIC50, intracellular amastigotes in PMM (converted), geometric mean of a minimum of two experiments ± standard error
[16] = pH 7.4, Microsome Clint,u Mouse, Table 2, intrinsic in vitro clearance, liver microsomes
[17] = HPLC, Ascentis Express RP Amide column, pH 7.4, elog D, HPLC measured log D, pH 7.4
[18] = MRC5, read-out: T. cruzi Tulahuen C4 (LacZ) IC50
[19] = pH 7.4, HLM CLint, human liver microsomes
[20] = read-out: L. infantum MHOM/MA(BE)/67/ITMAP263 intracellular amastigotes IC50, intracellular amastigotes
[21] = pH 7.4, MLM CLint, mouse liver microsomes
[22] = HPLC, Ascentis Express RP Amide column, pH 7.4, eLogD, experimental
[23] = pH 7.4, Microsome Clint Human, intrinsic in vitro clearance, liver microsomes
[24] = pH 7.4, Microsome Clint Mouse, intrinsic in vitro clearance, liver microsomes
[25] = pH 7.4, elog D, HPLC measured log D, pH 7.4

Compound: COc1ccc(CN(Cc2ccc(F)cc2)S(=O)(=O)c2cc(F)ccc2F)cc1 [DNDI0003388150]
- CC50 at 3 days (in vitro [1]): > 64 µM
- IC50 [2, 10]: 54.4 µM
- CC50 (in vitro [3]): > 64 µM
- CC50 (in vitro [4]): > 64 µM
- IC50 ([5]; read-out: PMM IC50 (uM)): > 64 µM
- IC50 [6, 11]: 57.5 µM
- IC50 [6, 12]: 57 µM

Compound: COc1ccc(C#N)cc1S(=O)(=O)N(Cc1ccc(F)cc1)C1CCOCC1 [Compound 43]
- microsomal CLint at 0.5 μM (in vitro [7]; [13]): 194 µL/min/mg
- IC50 [5, 14]: > 64.6 µM
- IC50 [6, 15]: > 64.6 µM
- potency against L. inf. in words [8]: inactive
- microsomal CLint at 0.5 μM (in vitro [9]; [16]): 253 µL/min/mg
- chromatographic logD (physchem; [17]): 3.4

Compound: O=S1(=O)c2cc(F)ccc2OC(c2ccc(F)cc2)CN1Cc1ccccc1 (centres unmarked) [DNDI0003371160]
- CC50 at 3 days (in vitro [1]): > 64 µM
- IC50 [2, 18]: 7.97 µM
- microsomal CLint at 0.5 μM (in vitro [7]; [19]): 398 µL/min/mg
- IC50 ([5]; read-out: PMM IC50): > 64 µM
- IC50 [6, 11]: 20.4 µM
- IC50 [6, 20]: 20.2 µM
- microsomal CLint at 0.5 μM (in vitro [9]; [21]): 323 µL/min/mg
- chromatographic logD (physchem; [22]): 4.9

Compound: COc1ccc([S+](C)[O-])cc1S(=O)(=O)N(Cc1ccccc1)Cc1ccccc1 (centres unmarked) [Compound 28]
- microsomal CLint at 0.5 h, 0.5 µM (in vitro [7]; [23]): 233 µL/min/mg
- IC50 [5, 14]: > 64.6 µM
- IC50 [6, 15]: 0.589 µM
- microsomal CLint at 0.5 h, 0.5 µM (in vitro [9]; [24]): 929 µL/min/mg
- chromatographic logD (physchem; [17]): 3.5

Compound: COc1ccc(S(=O)(=O)N(Cc2ccccc2)Cc2ccccc2)cc1 [Compound 11]
- microsomal CLint at 0.5 μM (in vitro [7]; [23]): 184 µL/min/mg
- IC50 [5, 14]: > 64.6 µM
- IC50 [6, 15]: 45.7 µM
- microsomal CLint at 0.5 μM (in vitro [9]; [24]): 2410 µL/min/mg
- chromatographic logD (physchem; [17]): 4.7

Compound: COc1ncccc1S(=O)(=O)N(Cc1ccccc1)Cc1ccccc1 [Compound 30]
- microsomal CLint at 0.5 μM (in vitro [7]; [23]): 849 µL/min/mg
- IC50 [5, 14]: > 64 µM
- IC50 [6, 15]: 0.646 µM
- microsomal CLint at 0.5 h, 0.5 µM (in vitro [9]; [24]): 2570 µL/min/mg
- chromatographic logD (physchem; [25]): 4.3

Compound: COc1ccc(OC)c(S(=O)(=O)N(Cc2ccccc2)Cc2ccccc2)c1 [Compound 9]
- microsomal CLint at 0.5 μM (in vitro [7]; [23]): 242 µL/min/mg
- IC50 [5, 14]: > 64.6 µM
- IC50 [6, 15]: 0.372 µM
- microsomal CLint at 0.5 μM (in vitro [9]; [24]): 1300 µL/min/mg
- chromatographic logD (physchem; [17]): 4.6

Compound: COc1ncc(Br)cc1S(=O)(=O)N(Cc1ccc(F)cc1)Cc1ccc(F)cc1 [DNDI0003369122]
- CC50 at 3 days (in vitro [1]): > 64 µM
- IC50 [2, 18]: 7.43 µM
- microsomal CLint at 0.5 μM (in vitro [7]; [19]): 95 µL/min/mg
- IC50 ([5]; read-out: PMM IC50): > 64 µM
- IC50 [6, 11]: 14.8 µM
- IC50 [6, 20]: 14.8 µM
- microsomal CLint at 0.5 μM (in vitro [9]; [21]): 469 µL/min/mg
- chromatographic logD (physchem; [22]): 5.2

Compound: Cn1cccc(S(=O)(=O)N(Cc2ccc(F)cc2)Cc2ccc(F)cc2)c1=O [Compound 31]
- microsomal CLint at 0.5 h, 0.5 µM (in vitro [7]; [23]): 676 µL/min/mg
- IC50 [5, 14]: > 64 µM
- IC50 [6, 15]: 20.9 µM
- microsomal CLint at 0.5 h, 0.5 µM (in vitro [9]; [24]): 2450 µL/min/mg
- chromatographic logD (physchem; [25]): 3.7

Compound: CCN(Cc1ccccc1)S(=O)(=O)c1cc(OC)ccc1OC [Compound 38]
- microsomal CLint at 0.5 μM (in vitro [7]; [13]): 534 µL/min/mg
- IC50 [5, 14]: > 64.6 µM
- IC50 [6, 15]: 2.09 µM
- L. inf. pIC50 ([8]; geometric mean of a minimum of two experiments ± standard error): 5.60 ± 0.03
- microsomal CLint at 0.5 μM (in vitro [9]; [16]): 3500 µL/min/mg
- chromatographic logD (physchem; [17]): 3.8
- chromatographic logD (physchem; [25]): 3.5

Compound: COc1ccc(C(N)=O)cc1S(=O)(=O)N(Cc1ccccc1)Cc1ccccc1 [Compound 21]
- microsomal CLint at 0.5 μM (in vitro [7]; [23]): 108 µL/min/mg
- IC50 [5, 14]: > 64.6 µM
- IC50 [6, 15]: 7.41 µM
- microsomal CLint at 0.5 μM (in vitro [9]; [24]): 1670 µL/min/mg
- chromatographic logD (physchem; [17]): 3.6

Compound: COc1ccc(C(=O)N2CCOCC2)cc1S(=O)(=O)N(Cc1ccc(F)cc1)CC(C)C [Compound 44]
- microsomal CLint at 0.5 h, 0.5 µM (in vitro [7]; [13]): 1050 µL/min/mg
- IC50 [5, 14]: > 64.6 µM
- IC50 [6, 15]: 6.92 µM
- microsomal CLint at 0.5 h, 0.5 µM (in vitro [9]; [16]): 1400 µL/min/mg
- chromatographic logD (physchem; [17]): 3.6

Compound: COc1ccc(C#N)cc1S(=O)(=O)N(Cc1ccc(C(F)(F)F)nc1)Cc1ccc(C(F)(F)F)nc1 [Compound 50]
- microsomal CLint at 0.5 μM (in vitro [7]; [13]): < 23 µL/min/mg
- IC50 [5, 14]: > 64.6 µM
- IC50 [6, 15]: 38.9 µM
- potency against L. inf. in words [8]: inactive
- microsomal CLint at 0.5 h, 0.5 µM (in vitro [9]; [16]): 95 µL/min/mg
- chromatographic logD (physchem; [17]): 3.8

Compound: COc1ccc(OC)c(S(=O)(=O)N(Cc2ccc(F)cc2)c2ccc(F)cc2)c1 [Compound 33]
- microsomal CLint at 0.5 h, 0.5 µM (in vitro [7]; [13]): 482 µL/min/mg
- IC50 [5, 14]: > 64.6 µM
- IC50 [6, 15]: 11.5 µM
- microsomal CLint at 0.5 h, 0.5 µM (in vitro [9]; [16]): 1560 µL/min/mg
- chromatographic logD (physchem; [17]): 4.3

Compound: COCCN(Cc1ccc(F)cc1)S(=O)(=O)c1ccccc1OC(F)(F)F [Compound 40]
- microsomal CLint at 0.5 h, 0.5 µM (in vitro [7]; [13]): 194 µL/min/mg
- IC50 [5, 14]: > 64.6 µM
- IC50 [6, 15]: 8.32 µM
- microsomal CLint at 0.5 h, 0.5 µM (in vitro [9]; [16]): 222 µL/min/mg
- chromatographic logD (physchem; [17]): 3.8

Compound: O=S(=O)(c1ccccc1OC(F)(F)F)N(Cc1ccccc1)Cc1ccccc1 [Compound 15]
- microsomal CLint at 0.5 h, 0.5 µM (in vitro [7]; [23]): 92.9 µL/min/mg
- IC50 [5, 14]: > 64.6 µM
- IC50 [6, 15]: 1.1 µM
- microsomal CLint at 0.5 μM (in vitro [9]; [24]): 689 µL/min/mg
- chromatographic logD (physchem; [17]): 5.1

Compound: COc1ccc(CN(Cc2ccc(F)cc2)S(=O)(=O)c2cc(C#N)ccc2OC)cc1 [DNDI0003371172]
- CC50 at 3 days (in vitro [1]): > 64 µM
- IC50 [2, 10]: 13.2 µM
- CC50 (in vitro [3]): 35.3 µM
- CC50 (in vitro [4]): 22.6 µM
- IC50 ([5]; read-out: PMM IC50 (uM)): > 64 µM
- IC50 [6, 11]: 2.95 µM
- IC50 [6, 12]: 2.92 µM

Compound: COc1ccc(C(=O)O)cc1S(=O)(=O)N(Cc1ccccc1)Cc1ccccc1 [Compound 20]
- microsomal CLint at 0.5 μM (in vitro [7]; [23]): < 23 µL/min/mg
- IC50 [5, 14]: > 64.6 µM
- IC50 [6, 15]: 57.5 µM
- microsomal CLint at 0.5 h, 0.5 µM (in vitro [9]; [24]): 94 µL/min/mg
- chromatographic logD (physchem; [17]): 2.5

Compound: COCCN(Cc1ccc(F)cc1)S(=O)(=O)c1cc(C#N)ccc1OC [Compound 41]
- microsomal CLint at 0.5 μM (in vitro [7]; [13]): < 23 µL/min/mg
- IC50 [5, 14]: > 64.6 µM
- IC50 [6, 15]: 8.91 µM
- microsomal CLint at 0.5 h, 0.5 µM (in vitro [9]; [16]): 585 µL/min/mg
- chromatographic logD (physchem; [17]): 3.4

Compound: N#Cc1ccc(O)c(S(=O)(=O)N(Cc2ccc(F)cc2)Cc2ccc(F)cc2)c1 [Compound 16]
- microsomal CLint at 0.5 h, 0.5 µM (in vitro [7]; [23]): 27.4 µL/min/mg
- IC50 [5, 14]: 45.7 µM
- IC50 [6, 15]: 30.9 µM
- microsomal CLint at 0.5 h, 0.5 µM (in vitro [9]; [24]): 1100 µL/min/mg
- chromatographic logD (physchem; [17]): 3.7

Compound: COc1ccc(OC)c(S(=O)(=O)N(Cc2ccccc2)C2CCCNC2)c1 (centres unmarked) [DNDI0003366131]
- CC50 at 3 days (in vitro [1]): 58.5 µM
- IC50 [2, 18]: 31.6 µM
- microsomal CLint at 0.5 μM (in vitro [7]; [19]): 347 µL/min/mg
- IC50 ([5]; read-out: PMM IC50): > 64 µM
- IC50 [6, 11]: 29.5 µM
- IC50 [6, 20]: 29.5 µM
- microsomal CLint at 0.5 μM (in vitro [9]; [21]): 96 µL/min/mg
- chromatographic logD (physchem; [22]): 3.2

Compound: COc1ccc(OC)c(S(=O)(=O)N(Cc2ccc(F)cc2)Cc2nc(C)no2)c1 [Compound 36]
- microsomal CLint at 0.5 μM (in vitro [7]; [13]): 350 µL/min/mg
- IC50 [5, 14]: > 64.6 µM
- IC50 [6, 15]: 7.76 µM
- microsomal CLint at 0.5 h, 0.5 µM (in vitro [9]; [16]): 3050 µL/min/mg
- chromatographic logD (physchem; [17]): 3.5

Compound: COc1ccc(OC)c(S(=O)(=O)N(Cc2ccc(F)cc2)Cc2cnc(OC)nc2OC)c1 [Compound 34]
- microsomal CLint at 0.5 h, 0.5 µM (in vitro [7]; [13]): 498 µL/min/mg
- IC50 [5, 14]: > 64.6 µM
- IC50 [6, 15]: 53.7 µM
- microsomal CLint at 0.5 h, 0.5 µM (in vitro [9]; [16]): 3150 µL/min/mg
- chromatographic logD (physchem; [17]): 3.8

Compound: COCCN(Cc1ccc(F)cc1)S(=O)(=O)c1cc(C(=O)N2CCOCC2)ccc1OC [Compound 42]
- microsomal CLint at 0.5 μM (in vitro [7]; [13]): 28 µL/min/mg
- IC50 [5, 14]: > 64.6 µM
- IC50 [6, 15]: 43.7 ± 0.601 µM
- microsomal CLint at 0.5 μM (in vitro [9]; [16]): 60 µL/min/mg
- chromatographic logD (physchem; [17]): 2.9
